molecular target: T1, MAPKAPK2 Recombinant Human Protein (Homo sapiens, UniProt P49137); experiment: MK2 kinase assay (Z'-LYTE kinase assay kit); settings: inhibition of MK2 biochemical activity; 90 min incubation at room temperature
T1 construct: purchased ThermoFisher pv3317
Description: Materials and Reagents for Measuring Inhibition of MK2 Biochemical Activity: • 1) Assay plate: 384 Well Low Volume Black Round Bottom Polystyrene NBS Microplate (Corning, Cat.No. 4514) • 2) MK2 kinase assay kit: Z' LYTE KINASE ASSAY KIT (ThermoFisher, Cat.No. pv3177) • 3) MAPKAPK2 Recombinant Human Protein (ThermoFisher, Cat.No. pv3317) • 4) DMSO (Vetec, Cat.No. V900090) • 5) DTT (Sigma, Cat.No. D0632)
MK2 Kinase Assay Procedure: • 1) Dispense 5 μl Kinase/Peptide Mixture to each wells of 384-well plate • 2) Add 2.5 μl 4× Test Compound to each well • 3) Add 2.5 μl 4× ATP Solution to each well • 4) After 90 minutes incubation at room temperature, add 5 μl Development Solution to each well • 5) After 60 minutes incubation at room temperature, add 5 μl stop Solution to each well • 6) Measure the Coumarin (Ex. 400 nm, Em. 445 nm) and Fluorescein (Ex. 400 nm, Em. 520 nm) emission signals on an Envision plate reader (PerkinElmer)

T1 sequence (P49137 whole entry): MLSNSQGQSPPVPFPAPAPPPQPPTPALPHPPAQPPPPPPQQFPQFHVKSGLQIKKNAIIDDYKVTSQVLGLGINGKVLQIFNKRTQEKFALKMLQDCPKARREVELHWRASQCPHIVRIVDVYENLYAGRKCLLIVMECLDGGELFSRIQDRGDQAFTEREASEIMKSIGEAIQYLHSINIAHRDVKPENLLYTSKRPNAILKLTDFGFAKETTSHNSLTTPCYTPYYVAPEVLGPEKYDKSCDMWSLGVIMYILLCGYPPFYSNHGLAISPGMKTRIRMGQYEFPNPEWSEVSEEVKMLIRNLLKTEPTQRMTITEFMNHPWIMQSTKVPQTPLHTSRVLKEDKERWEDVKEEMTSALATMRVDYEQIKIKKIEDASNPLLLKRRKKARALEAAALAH

| Compound | IC50 [nM] |
| --- | --- |
| N#Cc1ccc(-c2cc3n(c2)Cc2cc(N4CCN(C5CC5)CC4=O)ccc2-n2ccnc2-3)cc1 [Example 31, 4-(7-(4-Cyclopropyl-2-oxopiperazin-1-yl)-9H-benzo[e]imidazo[2,1-c]pyrrolo [1,2-a][1,4]diazepin-12-yl)benzonitrile] | 50 to 100 |
| Cc1nnc2n1-c1ccc(N3CCC(CN(C)C)C3=O)cc1Cn1cc(-c3ccc(C#N)cc3)cc1-2 (stereo not drawn) [Example 84] | 50 to 100 |
| CC(C)(N)C1CC(=O)N(c2ccc3c(c2)Cn2cc(-c4ccc(C#N)cc4)cc2-c2nccn2-3)C1 (stereo not drawn) [Example 51] | < 50 |
| CC1(CN2C(=O)CN(c3ccc4c(c3)Cn3cc(-c5ccc(C#N)cc5)cc3-c3nccn3-4)C2=O)CNC1 [Example 64, 4-(7-(3-((3-Methylazetidin-3-yl)methyl)-2,4-dioxoimidazolidin-1-yl)-9H-benzo[e]imidazo[2,1-c]pyrrolo[1,2-a][1,4]diazepin-12-yl)benzonitrile] | < 50 |
| CN(C)CC1(C)CCN(c2ccc3c(c2)Cn2cc(-c4ccc(C#N)cc4)cc2-c2nccn2-3)C1=O (stereo not drawn) [Example 39, 4-(7-(3-((Dimethylamino)methyl)-3-methyl-2-oxopyrrolidin-1-yl)-9H-benzo[e]imidazo[2,1-c]pyrrolo[1,2-a][1,4]diazepin-12-yl)benzonitrile] | 100 to 200 |
| N#Cc1ccc(-c2cc3n(c2)Cc2cc(N4C[C@H](CO)NCC4=O)ccc2-n2ccnc2-3)cc1 [Example 80, (R)-4-(7-(5-(Hydroxymethyl)-2-oxopiperazin-1-yl)-9H-benzo[e]imidazo[2,1-c]pyrrolo[1,2-a][1,4]diazepin-12-yl)benzonitrile] | 50 to 100 |
| CC1(C2CC(=O)N(c3ccc4c(c3)Cn3cc(-c5ccc(C#N)cc5)cc3-c3nccn3-4)C2)CCN1 (stereo not drawn) [Example 62, 4-(7-(4-(2-methylazetidin-2-yl)-2-oxopyrrolidin-1-yl)-9H-benzo[e]imidazo[2,1-c]pyrrolo[1,2-a][1,4]diazepin-12-yl)benzonitrile] | < 50 |
| CN(C)C1CCC(C(=O)Nc2ccc3c(c2)Cn2cc(-c4ccc(C#N)cc4)cc2-c2nccn2-3)C1 (stereo not drawn) [Example 78] | 50 to 100 |
| [2H]C([2H])([2H])N(C([2H])([2H])[2H])C([2H])([2H])C1CCN(c2ccc3c(c2)Cn2cc(-c4ccc(C#N)cc4)cc2-c2nccn2-3)C1=O (stereo not drawn) [Example 38, 4-(7-(3-((Dideuteratedmethylamino)deuteratedmethyl)-2-oxopyrrolidin-1-yl)-9H-benzo[e]imidazo[2,1-c]pyrrolo[1,2-a][1,4]diazepin-12-yl)benzonitrile] | < 50 |
| CN1CCN2C(=O)N(c3ccc4c(c3)Cn3cc(-c5ccc(C#N)cc5)cc3-c3nccn3-4)C[C@H]2C1 [Example 60, (R)-4-(7-(7-Methyl-3-oxohexahydroimidazo[1,5-a]pyrazin-2(3H)-yl)-9H-benzo[e]imidazo[2,1-c]pyrrolo[1,2-a][1,4]diazepin-12-yl)benzonitrile] | < 50 |
| CC(C)(N)[C@H]1CC(=O)N(c2ccc3c(c2)Cn2cc(-c4ccc(C#N)cc4)cc2-c2nccn2-3)C1 [Example 52] | < 50 |
| CC(C)(N)C1CN(c2ccc3c(c2)Cn2cc(-c4ccc(C#N)cc4)cc2-c2nccn2-3)C(=O)O1 (stereo not drawn) [Example 20] | < 50 |
| Cc1nnc2n1-c1ccc(N3C[C@@H](CN(C)C)OC3=O)cc1Cn1cc(-c3ccc(C#N)cc3)cc1-2 [Example 83] | 50 to 100 |
| N#Cc1ccc(-c2cc3n(c2)Cc2cc(N4C[C@@H](C5(N)CC5)CC4=O)ccc2-n2ccnc2-3)cc1 (stereo in doubt) [Example 49, (S)-4-(7-(4-(1-aminocyclopropyl)-2-oxopyrrolidin-1-yl)-9H-benzo[e]imidazo [2,1-c]pyrrolo[1,2-a][1,4]diazepin-12-yl)benzonitrile] | < 50 |
| CN1CCN(C(=O)c2ccc3c(c2)Cn2cc(-c4ccc(C#N)cc4)cc2-c2nccn2-3)CC1 [Example 107] | 200 to 300 |
| CC(C)(N)C1CCN(c2ccc3c(c2)Cn2cc(-c4ccc(C#N)cc4)cc2-c2nccn2-3)C1=O (stereo not drawn) [Example 44, 4-(7-(3-(2-Aminopropan-2-yl)-2-oxopyrrolidin-1-yl)-9H-benzo[e]imidazo [2,1-c]pyrrolo[1,2-a][1,4]diazepin-12-yl)benzonitrile] | 50 to 100 |
| N#Cc1ccc(-c2cc3n(c2)Cc2cc(N4C[C@@H](CN)OC4=O)ccc2-n2ccnc2-3)cc1 [Example 2] | 50 to 100 |
| N#Cc1ccc(-c2cc3n(c2)Cc2cc(N4C[C@@H](N)CC4=O)ccc2-n2ccnc2-3)cc1 [Example 32, (S)-4-(7-(4-Amino-2-oxopyrrolidin-1-yl)-9H-benzo[e]imidazo[2,1-c]pyrrolo [1,2-a][1,4]diazepin-12-yl)benzonitrile] | 50 to 100 |
| C[N+](C)(C)C[C@H]1CC(=O)N(c2ccc3c(c2)Cn2cc(-c4ccc(C#N)cc4)cc2-c2nccn2-3)C1 [Example 18, (S)-1-(1-(12-(4-cyanophenyl)-9H-benzo[e]imidazo[2,1-c]pyrrolo[1,2-a][1,4]diazepin-7-yl)-5-oxopyrrolidin-3-yl)-N,N,N-trimethylmethanaminium iodide] | 50 to 100 |
| CN(C)C1CN(C(=O)c2ccc3c(c2)Cn2cc(-c4ccc(C#N)cc4)cc2-c2nccn2-3)C1 [Example 104] | 200 to 300 |
| Cc1nnc2n1-c1ccc(N3CCN(CCN(C)C)C3=O)cc1Cn1cc(-c3ccc(C#N)cc3)cc1-2 [Example 85] | < 50 |
| CN(C)CC1CCN(C(=O)c2ccc3c(c2)Cn2cc(-c4ccc(C#N)cc4)cc2-c2nccn2-3)C1 (stereo not drawn) [Example 112, 4-(7-(3-((dimethylamino)methyl)pyrrolidine-1-carbonyl)-9H-benzo[e]imidazo [2,1-c]pyrrolo[1,2-a][1,4]diazepin-12-yl)benzonitrile] | 50 to 100 |
| CC(C)(N)CNC(=O)c1ccc2c(c1)Cn1cc(-c3ccc(C#N)cc3)cc1-c1nccn1-2 [Example 111] | 200 to 300 |
| CN(C)C1CCN(C(=O)c2ccc3c(c2)Cn2cc(-c4ccc(C#N)cc4)cc2-c2nccn2-3)C1 (stereo not drawn) [Example 103] | 200 to 300 |
| CN(C)C[C@H]1CC(=O)N(c2ccc3c(c2F)Cn2cc(-c4ccc(C#N)cc4)cc2-c2nccn2-3)C1 [Example 92, (R)-4-(7-(4-((Dimethylamino)methyl)-2-oxopyrrolidin-1-yl)-8-fluoro-9H-benzo[e]imidazo[2,1-c]pyrrolo[1,2-a][1,4]diazepin-12-yl)benzonitrile] | 50 to 100 |
| N#Cc1ccc(-c2cc3n(c2)Cc2cc(N4CC(C5(CO)COC(=O)N5)CC4=O)ccc2-n2ccnc2-3)cc1 (stereo not drawn) [Example 63, 4-(7-(4-(4-(Hydroxymethyl)-2-oxooxazolidin-4-yl)-2-oxopyrrolidin-1-yl)-9H-benzo[e]imidazo[2,1-c]pyrrolo[1,2-a][1,4]diazepin-12-yl)benzonitrile] | 50 to 100 |
| CN1CC[C@H](NC(=O)c2ccc3c(c2)Cn2cc(-c4ccc(C#N)cc4)cc2-c2nccn2-3)C1 [Example 102] | < 50 |
| CN1CCCC1CNC(=O)c1ccc2c(c1)Cn1cc(-c3ccc(C#N)cc3)cc1-c1nccn1-2 (stereo not drawn) [Example 106] | 100 to 200 |

The next lines start with the values.

| IC50 [nM] | Compound |
| --- | --- |
| 200 to 300 | CN1CC[C@@H](N(C)C(=O)c2ccc3c(c2)Cn2cc(-c4ccc(C#N)cc4)cc2-c2nccn2-3)C1 [Example 134] |
| 100 to 200 | CN(C)C[C@@H]1CCCN1C(=O)c1ccc2c(c1)Cn1cc(-c3ccc(C#N)cc3)cc1-c1nccn1-2 [Example 114] |
| 50 to 100 | CN(C)[C@H]1CCCN(C(=O)c2ccc3c(c2)Cn2cc(-c4ccc(C#N)cc4)cc2-c2nccn2-3)C1 [Example 125] |
| 300 to 400 | CN(C)[C@H]1CC[C@H](NC(=O)c2ccc3c(c2)Cn2cc(-c4ccc(C#N)cc4)cc2-c2nccn2-3)C1 [Example 122] |
| 50 to 100 | CN(C)[C@@H]1CCCN(C(=O)c2ccc3c(c2)Cn2cc(-c4ccc(C#N)cc4)cc2-c2nccn2-3)C1 [Example 124] |
| 300 to 400 | CN(C)[C@@H]1CC[C@@H](NC(=O)c2ccc3c(c2)Cn2cc(-c4ccc(C#N)cc4)cc2-c2nccn2-3)C1 [Example 123] |
| 100 to 200 | N#Cc1ccc(-c2cc3n(c2)Cc2cc(C(=O)NCCN4CCC4)ccc2-n2ccnc2-3)cc1 [Example 118] |
| 100 to 200 | CN1CC(C)(NC(=O)c2ccc3c(c2)Cn2cc(-c4ccc(C#N)cc4)cc2-c2nccn2-3)C1 [Example 129] |
| 50 to 100 | CN1CCC2(CC1)CN(C(=O)c1ccc3c(c1)Cn1cc(-c4ccc(C#N)cc4)cc1-c1nccn1-3)C2 [Example 131] |
| 100 to 200 | CN(C)[C@H]1C[C@@H](NC(=O)c2ccc3c(c2)Cn2cc(-c4ccc(C#N)cc4)cc2-c2nccn2-3)C1 [Example 127] |
| 100 to 200 | CN(CC1CNC1)C(=O)c1ccc2c(c1)Cn1cc(-c3ccc(C#N)cc3)cc1-c1nccn1-2 [Example 135] |
| 200 to 300 | CN(C)C[C@H]1CCCN1C(=O)c1ccc2c(c1)Cn1cc(-c3ccc(C#N)cc3)cc1-c1nccn1-2 [Example 113] |
| 50 to 100 | CN1CC(C)(CNC(=O)c2ccc3c(c2)Cn2cc(-c4ccc(C#N)cc4)cc2-c2nccn2-3)C1 [Example 121] |
| 50 to 100 | CN1CC(N(C)C(=O)c2ccc3c(c2)Cn2cc(-c4ccc(C#N)cc4)cc2-c2nccn2-3)C1 [Example 132, 12-(4-Cyanophenyl)-N-methyl-N-(1-methylazetidin-3-yl)-9H-benzo[e]imidazo [2,1c]pyrrolo[1,2-a][1,4]diazepine-7-carboxamide] |
